Assay [1] in a line: Compound was tested for it's ability to inhibit NADH UBQ reductase activity in beef mitochondrial particles. Details: species or system Bos taurus.
The species entered for another assay is Bos taurus. Put plainly: Residual NADH:UBQ:DCIP reductase activity in beef mitochondrial particles. On the set-up: concentration or dose not given beside the values.
Assay [2] is described as follows: Compound was tested for it's ability to inhibit NADH UBQ reductase activity in parascaris mitochondrial particles.
A further assay concerns Parascaris equorum. Description: Residual NADH:UBQ:DCIP reductase activity in parascaris mitochondrial particles. On the set-up: concentration or dose not given beside the values.

This passage reports IC50 and residual activity results from ChEMBL document CHEMBL1128596, “Thienylimidazo[2,1-b]thiazoles as inhibitors of mitochondrial NADH dehydrogenase” (J Med Chem, 1995).

As for `Cc1cn2cc(-c3cccs3)nc2s1`, the IC50 in assay [1] worked out at 70 µM; in assay [2] it was 220 µM. For the same compound, the residual activity worked out at 28% in the assay listed under Bos taurus and 59% in the assay with Parascaris equorum.

Take `Clc1cn2cc(-c3cccs3)nc2s1`: the values for the residual activity in the assay filed under Bos taurus and in the assay with Parascaris equorum were 40% and 75%, respectively.

In the case of `Cn1c(Cl)c(/C=C\c2cccs2)[n+]2c1SCC2`, the residual activity in the assay filed under Bos taurus was found to be 85%; in the assay on Parascaris equorum, 92%.

In the case of `Cn1c(Cl)c(/C=C/c2cccs2)[n+]2c1SCC2`, the residual activity turned out to be 91% in the assay filed under Bos taurus and 88% in the assay on Parascaris equorum.

As for `C=C(C)[C@H]1Cc2c(ccc3c2O[C@@H]2COc4cc(OC)c(OC)cc4[C@@H]2C3=O)O1`, the residual activity turned out to be 34% in the assay filed under Bos taurus and 65% in the assay on Parascaris equorum.

Take `c1csc(-c2cn3c(n2)SCC3)c1`: the residual activity came out at 68% in the assay filed under Bos taurus and 88% with Parascaris equorum.

`c1cc(-c2cn3ccsc3n2)cs1`: the residual activity in the assay filed under Bos taurus worked out at 68%; with Parascaris equorum, 83%.

Take `Cc1csc2nc(-c3cccs3)cn12`: the IC50 in assay [1] was determined as 90 µM; in assay [2], 380 µM. The residual activity came out at 38% in the assay listed under Bos taurus and 70% with Parascaris equorum.

Take `Cn1c(-c2ccccc2)c(/C=C/c2cccs2)[n+]2ccsc12`: the values for the residual activity in the assay listed under Bos taurus and with Parascaris equorum were 81% and 94%, respectively.

In the case of `Cc1csc2nc(-c3ccsc3)cn12`, it took 210 µM to reach half-maximal inhibition in assay [1] (IC50). Further, the results for the residual activity in the assay filed under Bos taurus and with Parascaris equorum were 43% and 75%, respectively.

`c1csc(-c2cn3ccsc3n2)c1`: the residual activity in the assay filed under Bos taurus amounted to 57%; with Parascaris equorum, 79%.

With `Cn1c(-c2ccccc2)c(/C=C/c2cccs2)[n+]2c1SCC2`, the residual activity in the assay filed under Bos taurus stood at 77%; with Parascaris equorum it was 92%.

In assay [1], `Cc1cn2cc(-c3ccsc3)nc2s1` yielded an IC50 of 140 µM. For the same compound, the residual activity worked out at 40% in the assay filed under Bos taurus and 73% with Parascaris equorum.
